Columns and labels:
[1] = system: N. gonorrhoeae; conditions: N. gonorrhoeae MMX 683 (ATCC 49226); cited from earlier work
[2] = system: Clostridium difficile; conditions: C. difficile MMX 4381 (ATCC 700057), CC^I; cited from earlier work
[3] = system: Bacteroides fragilis; conditions: B. fragilis MMX 123 (ATCC 25285); cited from earlier work
[4] = system: Escherichia coli; test: Broth microdilution MIC (Example 11); type: cell-based
[5] = system: Enterococcus spp. (E. faecalis, E. faecium); test: Broth microdilution MIC (Example 11); type: cell-based; conditions: VRE, LevR, CipR, EryR
[6] = system: Enterobacter cloacae; test: Broth microdilution MIC (Example 11); type: cell-based; conditions: E. cloacae MMX 5981 (ATCC BAA-2468); NDM-1, LevR, MEMR, CAZR, GmR
[7] = system: Pseudomonas aeruginosa; conditions: P. aeruginosa MMX 103 (ATCC 27853); cited from earlier work
[8] = system: Acinetobacter baumannii; test: Broth microdilution MIC (Example 11); type: cell-based
[9] = system: Pseudomonas aeruginosa; test: Broth microdilution MIC (Example 11); type: cell-based
[10] = system: Escherichia coli; conditions: E. coli MMX 102 (ATCC 25922); cited from earlier work
[11] = system: Klebsiella pneumoniae; test: Broth microdilution MIC (Example 11); type: cell-based
[12] = system: Staphylococcus aureus (MRSA); test: Broth microdilution MIC (Example 11); type: cell-based
[13] = system: Staphylococcus aureus (MRSA); conditions: S. aureus MMX 101 (ATCC 29213); cited from earlier work

Question: With `CO/N=C(\C(=O)N[C@@H]1C(=O)N2C(C(=O)O)=C(CSc3nc(=O)c(=O)[nH]n3C)CS[C@H]12)c1csc(N)n1` [Ceftriaxone] as the molecule, how does the “MIC, CLSI QC range” value [1] read?
Answer: (0.004-0.015) μg/mL

Question: For `CCc1c(Cl)c(O)c(Cl)c(O)c1C(=O)O[C@H]1[C@H](O)[C@H](OC)[C@H](OC/C2=C\C=C\C[C@H](O)/C(C)=C/[C@H](CC)[C@@H](O[C@@H]3OC(C)(C)[C@@H](OC(=O)C(C)C)[C@H](O)[C@@H]3O)/C(C)=C/C(C)=C/C[C@@H]([C@@H](C)O)OC2=O)O[C@@H]1C` [Fidaxomicin], which “MIC, CLSI QC range” value [2] is on record?
Answer: (0.06-0.25) pg/mL

Question: Which results are given for `Cc1ncc([N+](=O)[O-])n1CCO` [Metronidazole]?
Answer: MIC, CLSI QC range [3]: (0.25-1) pg/mL; MIC, CLSI QC range [2]: (0.12-0.5) pg/mL

Question: For Gentamicin, which MIC ([4]; E. coli MMX 102 (ATCC 25922), QC) is on record?
Answer: 1 mg/L

Question: And the MIC ([4]; E. coli MMX 5980 (ATCC BAA-2469), NDM-1, LevR, MEMR, CAZR, GmR)?
Answer: >64 mg/L

Question: What about the MIC ([4]; E. coli MMX 8423, ESBL, LevR, CAZR, GmR) of the same molecule?
Answer: 64 mg/L

Question: What about the MIC ([4]; E. coli MMX 8424, ESBL, CAZR) of the same molecule?
Answer: 0.25 mg/L

Question: And the MIC ([4]; E. coli MMX 8425, ESBL, LevR, CAZR, GmR)?
Answer: >64 mg/L

Question: What about the MIC ([5]; E. faecalis MMX 8960) of the same molecule?
Answer: >64 mg/L

Question: And the MIC ([5]; E. faecalis MMX 8961)?
Answer: 8 mg/L

Question: What about the MIC ([5]; E. faecalis MMX 8962) of the same molecule?
Answer: >64 mg/L

Question: What about the MIC ([5]; E. faecium MMX 485, vanA) of the same molecule?
Answer: >64 mg/L

Question: And the MIC ([5]; E. faecium MMX 752, vanA)?
Answer: >64 mg/L

Question: What about the MIC [6] of the same molecule?
Answer: >64 mg/L

Question: What about the “CLSI QC range (MIC)” value [7] of the same molecule?
Answer: (0.5-2)

Question: And the MIC ([8]; A. baumannii MMX 2592, MDR, LevR, CipR, MEMR, CAZR, GmR)?
Answer: > 64 mg/L

Question: And the MIC ([8]; A. baumannii MMX 2593, MDR, LevR, CipR, MEMR, CAZR, GmR)?
Answer: > 64 mg/L

Question: And the MIC ([8]; A. baumannii MMX 3372, MDR, CipR, MEMI, CAZI)?
Answer: 0.5 mg/L

Question: What about the MIC ([8]; A. baumannii MMX 3373, Sensitive) of the same molecule?
Answer: 0.12 mg/L

Question: What about the MIC ([8]; A. baumannii MMX 4651 (NCTC 13304), MDR, OXA-27, LevR, CipR, MEMR, CAZR, GmI) of the same molecule?
Answer: 8 mg/L

Question: What about the MIC ([9]; P. aeruginosa MMX 103 (ATCC 27853), QC) of the same molecule?
Answer: 1 mg/L

Question: And the MIC ([9]; P. aeruginosa MMX 1381, MDR, LevR, CipR, MEMR, CAZR)?
Answer: 8 mg/L

Question: And the MIC ([9]; P. aeruginosa MMX 2562, MDR, LevR, CipR, MEMR, CAZR)?
Answer: 8 mg/L

Question: And the MIC ([9]; P. aeruginosa MMX 3991, MDR, LevR, CipR, MEMR, CAZR)?
Answer: 4 mg/L

Question: And the MIC ([9]; P. aeruginosa MMX 4654, IMP-7, LevR, CipR, MEMR, CAZR)?
Answer: > 64 mg/L

Question: And the MIC ([9]; P. aeruginosa MMX 4697, VIM-2, LevR, CipR, MEMR, CAZR)?
Answer: 4 mg/L

Question: And the “CLSI QC range (MIC)” value [10]?
Answer: (0.25-1) μg/mL

Question: And the MIC ([11]; K. pneumoniae MMX 4622, KPC-2, MEMR, CAZR)?
Answer: 0.25 mg/L

Question: What about the MIC ([11]; K. pneumoniae MMX 4623, KPC-2, MEMR, CAZR, GMR) of the same molecule?
Answer: 64 mg/L

Question: What about the MIC ([11]; K. pneumoniae MMX 4653, KPC-3, LevR, MEMR, CAZR) of the same molecule?
Answer: 1 mg/L

Question: And the MIC ([11]; K. pneumoniae MMX 4683, KPC-2, LevR, MEMR, CAZR)?
Answer: 1 mg/L

Question: What about the MIC ([11]; K. pneumoniae MMX 4684, ESBL, MEMR) of the same molecule?
Answer: 0.25 mg/L

Question: What about the MIC ([11]; K. pneumoniae MMX 4685, ESBL, LevR, MEMR, CAZR) of the same molecule?
Answer: 1 mg/L

Question: What about the MIC ([11]; K. pneumoniae MMX 4694, KPC-3, LevR, MEMR, CAZR) of the same molecule?
Answer: 8 mg/L

Question: And the MIC ([11]; K. pneumoniae MMX 5979, NDM-1, LevR, MEMR, CAZR, GmR)?
Answer: >64 mg/L

Question: What about the MIC ([12]; S. aureus MMX 101 (ATCC 29213), QC, MSSA) of the same molecule?
Answer: 0.12 mg/L

Question: What about the MIC ([12]; S. aureus MMX 5373, MRSA, LevR, CipR, CCR, EryR, OxR) of the same molecule?
Answer: 0.25 mg/L

Question: And the MIC ([12]; S. aureus MMX 6311, MRSA, LevR, CipR, CCR, EryR, OxR)?
Answer: 0.25 mg/L

Question: And the MIC ([12]; S. aureus MMX 9203, MRSA, LevR, CipR, EryR, OxR)?
Answer: 0.12 mg/L

Question: And the MIC ([12]; S. aureus MMX 9204, MRSA, LevR, CipR, EryR, OxR)?
Answer: 0.25 mg/L

Question: And the MIC ([12]; S. aureus MMX 9205, MRSA, LevR, CipR, CCR, EryR, OxR)?
Answer: 0.25 mg/L

Question: What about the “CLSI QC range (MIC)” value [13] of the same molecule?
Answer: (0.12-1) μg/mL

Source: patent US12186283B2, “Bismuth-thiol compositions and methods of use” (Microbion Corporation, priority 2018, dated 2025)
